Results from PMC7738283, “Discovery of orally active chalcones as histone lysine specific demethylase 1 inhibitors for the treatment of leukaemia” (Journal of Enzyme Inhibition and Medicinal Chemistry, 2020).
“Also recorded” adds a separate entry of the source.

Experiments:
MAO-A = biological target: T1, MAO-A (Homo sapiens, UniProt P21397); test: MAO-A inhibition assay (MAO-Glo kit); assay type: biochemical; conditions: for IC50: in vitro
T1 construct: purchased Active Motif 31502
T1 sequence (P21397 1-527): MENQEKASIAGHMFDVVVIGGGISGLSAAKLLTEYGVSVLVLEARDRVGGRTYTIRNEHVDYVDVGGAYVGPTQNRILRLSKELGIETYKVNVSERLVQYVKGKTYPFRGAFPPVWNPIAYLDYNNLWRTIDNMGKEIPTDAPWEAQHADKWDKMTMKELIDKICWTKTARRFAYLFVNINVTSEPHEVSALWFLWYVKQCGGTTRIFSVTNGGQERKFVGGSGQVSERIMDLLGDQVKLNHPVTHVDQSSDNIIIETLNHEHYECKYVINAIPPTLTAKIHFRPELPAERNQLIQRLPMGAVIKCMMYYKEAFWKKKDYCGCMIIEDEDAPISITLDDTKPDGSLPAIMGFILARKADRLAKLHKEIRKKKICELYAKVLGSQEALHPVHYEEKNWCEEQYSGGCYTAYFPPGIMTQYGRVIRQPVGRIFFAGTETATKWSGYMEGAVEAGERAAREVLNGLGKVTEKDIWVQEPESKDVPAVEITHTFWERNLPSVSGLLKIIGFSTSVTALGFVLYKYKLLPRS
Experimental: (§1) The inhibition of LSD1 activity was evaluated according to reported references. pET-28b-LSD1 (full length) was transfected into BL21 (DE). Then, the protein was induced with 0.25 mmol/L IPTG following sonication and purified with Ni-NTA (Qiagen, Tubingen, Germany), Resource Q (GE, Pittsburgh, PA, USA) and Sephacryl S-200 HR (GE, Pittsburgh, PA, USA). The fluorescence intensity was read using EnVision Plate Reader (PerkinElmer, Waltham, MA, USA) to calculate the inhibition rate. The MAO-A and MAO-B were purchased from Active Motif (Cat#31502, Cat#31503, Carlsbad, CA, USA). Biochemical Kits were purchased from Promega (MAO-Glo Assay, Madison, WI, USA). The inhibitory activities of MAO-A and MAO-B were obtained according to the reported reference. The inhibitory activities of CDK1 and CDK2 were obtained according to the reported reference.

MAO-B = biological target: T2, MAO-B (Homo sapiens, UniProt P27338); test: MAO-B inhibition assay (MAO-Glo kit); assay type: biochemical; conditions: for IC50: in vitro, MAO-AB [sic]
T2 construct: purchased Active Motif 31503
T2 sequence (P27338 1-520): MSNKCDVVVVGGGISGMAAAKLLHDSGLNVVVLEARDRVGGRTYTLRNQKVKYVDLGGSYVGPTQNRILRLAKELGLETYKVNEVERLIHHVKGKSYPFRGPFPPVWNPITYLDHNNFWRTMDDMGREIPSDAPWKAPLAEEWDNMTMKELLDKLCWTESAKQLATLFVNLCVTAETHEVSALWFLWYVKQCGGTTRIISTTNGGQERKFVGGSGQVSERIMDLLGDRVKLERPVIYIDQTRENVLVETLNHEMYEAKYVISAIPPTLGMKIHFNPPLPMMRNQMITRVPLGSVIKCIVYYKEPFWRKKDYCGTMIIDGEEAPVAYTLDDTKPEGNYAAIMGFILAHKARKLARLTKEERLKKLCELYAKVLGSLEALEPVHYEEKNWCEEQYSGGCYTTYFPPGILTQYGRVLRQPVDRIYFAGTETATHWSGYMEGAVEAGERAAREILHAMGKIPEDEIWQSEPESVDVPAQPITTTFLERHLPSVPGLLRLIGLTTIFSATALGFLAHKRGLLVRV
Experimental: as §1

LSD1 = biological target: T3, LSD1 (Homo sapiens, UniProt O60341); test: LSD1 enzyme inhibition assay (recombinant LSD1, fluorescence); assay type: biochemical; conditions: for IC50: in vitro
T3 construct: pET-28b-LSD1 (full length) was transfected into BL21 (DE); inferred from the pET-28b vector and Ni-NTA purification; made in house; host or cells: E. coli BL21 (DE)
Experimental: (§3) The inhibition of LSD1 activity was evaluated according to reported references [23, 24]. pET-28b-LSD1 (full length) was transfected into BL21 (DE). Then, the protein was induced with 0.25 mmol/L IPTG following sonication and purified with Ni-NTA (Qiagen, Tubingen, Germany), Resource Q (GE, Pittsburgh, PA, USA) and Sephacryl S-200 HR (GE, Pittsburgh, PA, USA). The fluorescence intensity was read using EnVision Plate Reader (PerkinElmer, Waltham, MA, USA) to calculate the inhibition rate. […] The inhibitory activities of CDK1 and CDK2 were obtained according to the reported reference [26].

[1] = system: IMR-32 (neuroblastoma cells); test: MTT cell viability assay, IMR-32; assay type: cell-based; conditions: 4, 8, 16 μM; 48 h and 72 h
Experimental: (§2) Cancer cell lines (Hela, 22RV1, Caco-2, BEL-7402, MOLT-4, OVCAR-3, HCT-8, HIC, IMR-32, HAL-01, KE-37, P30-OHK, SUP-B15 and LC4-1) were maintained in RPMI 1640 medium (Hyclone, Los Angeles, CA, USA) with 10% foetal bovine serum (Hyclone, Los Angeles, USA) and 1% penicillin-streptomycin (Hyclone, Los Angeles, USA) in a humidified atmosphere of 5% CO2 and 95% air at 37 °C. All cell lines were purchased from the China Centre for Type Culture Collection (CCTCC, China). Control containing sequence specific for LSD1 ([…]) was described. The shRNA constructs were transfected into MOLT-4 cells using the Lonza Group nucleofector technology in accordance with the manufacturer’s instructions. MOLT-4&shLSD1 cells and MOLT-4&shControl cells were also established and cultured according to the published references. After the incubation for 24 h, cancer cell lines were cultured with the chalcone D6 at different concentrations. Then, 20 μL of MTT (3–(4,5-dimethylthiazol-2-yl)-2,5-diphenyltetrazolium bromide) solution (5 mg/ml) was added and the cells were incubated for 4 h. The absorbance was measured using a microplate reader (DeTie Technology Co., Ltd, NanJing, China).

MOLT-4 xenograft = MOLT-4 xenograft study; assay type: in vivo; conditions: 60 mg/kg and 100 mg/kg, intragastric, 21 days
Experimental: Animals were treated according to the protocols established by the ethics committee of Shengjing Hospital of China Medical University and the in vivo experiments were carried out in accordance with the approved guidelines and approved by the ethics committee of Shengjing Hospital of China Medical University. BALB/c nude mice were purchased from Hunan Slack Scene of Laboratory Animal Co., Ltd. (Hunan, China). Xenograft models using human leukaemia cells, MOLT-4, were established in BALB/c mice. Then, mice were separated into vehicle group and treatment groups (60 mg/kg and 100 mg/kg). The treatment groups received compound D6 by intragastric administration for a period of 21 days.

[2] = system: 22RV1 (prostate cancer cells); test: MTT cell viability assay, 22RV1; assay type: cell-based; conditions: 4, 8, 16 μM; 48 h and 72 h
Experimental: as §2

MOLT-4 cells = test: MTT cell viability assay, MOLT-4; assay type: cell-based, human
Experimental: (§4) All cell lines were purchased from the China Centre for Type Culture Collection (CCTCC, China). […] Then, 20 μL of MTT (3–(4,5-dimethylthiazol-2-yl)-2,5-diphenyltetrazolium bromide) solution (5 mg/ml) was added and the cells were incubated for 4 h. The absorbance was measured using a microplate reader (DeTie Technology Co., Ltd, NanJing, China).

CDK2 = CDK2 (Homo sapiens, UniProt P24941); test: CDK2 enzyme assay; assay type: biochemical; conditions: 400 nM; read-out: inhibition rate CDK2
Experimental: as §3

[3] = system: H3K9me1 and H3K9me2 in MOLT-4 cells; test: Western blotting of LSD1 substrates H3K9me1/2 in MOLT-4 cells; assay type: cell-based, human; conditions: western blot
Experimental: Western blot was performed with the total lysates using RIPA buffer (Hyclone, Los Angeles, CA, USA). Same amounts of protein were subjected to SDS-PAGE, and then transferred to nitrocellulose membranes (PALL, Cortland, NY, USA). After blocking with 5% milk solution, the membranes were incubated at 4 °C with respective antibody overnight, followed by the incubation with a secondary antibody. Finally, the blot was visualised by enhanced chemiluminescence kit (Thermo Fisher, Waltham, MA, USA).

CDK1 = CDK1 (Homo sapiens, UniProt P06493); test: CDK1 enzyme assay; assay type: biochemical; conditions: 400 nM; read-out: inhibition rate CDK1
Chain of CDK1 (P06493 whole entry, species assumed): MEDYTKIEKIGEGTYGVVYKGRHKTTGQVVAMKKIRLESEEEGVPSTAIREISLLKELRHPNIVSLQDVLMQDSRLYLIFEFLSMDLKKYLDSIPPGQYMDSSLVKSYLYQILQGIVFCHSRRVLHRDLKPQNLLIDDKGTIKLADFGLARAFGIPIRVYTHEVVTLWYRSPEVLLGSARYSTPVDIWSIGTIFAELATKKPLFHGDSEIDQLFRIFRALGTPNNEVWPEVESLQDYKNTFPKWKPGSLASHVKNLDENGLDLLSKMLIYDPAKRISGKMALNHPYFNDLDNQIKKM
Chain of CDK1 (P14635 whole entry partner, species assumed): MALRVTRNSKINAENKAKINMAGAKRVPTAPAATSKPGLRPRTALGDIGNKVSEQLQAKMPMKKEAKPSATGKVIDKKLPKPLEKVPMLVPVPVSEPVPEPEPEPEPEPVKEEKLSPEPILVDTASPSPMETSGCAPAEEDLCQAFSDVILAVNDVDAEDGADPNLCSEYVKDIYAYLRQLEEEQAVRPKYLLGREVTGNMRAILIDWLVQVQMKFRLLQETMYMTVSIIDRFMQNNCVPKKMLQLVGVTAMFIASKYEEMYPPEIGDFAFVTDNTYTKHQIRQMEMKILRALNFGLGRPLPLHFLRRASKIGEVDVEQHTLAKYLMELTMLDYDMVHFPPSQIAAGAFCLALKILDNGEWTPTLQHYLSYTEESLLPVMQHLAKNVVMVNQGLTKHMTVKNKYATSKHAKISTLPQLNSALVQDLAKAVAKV
Experimental: as §3

[4] = system: Caco-2 (colon cancer cells); test: MTT cell viability assay, Caco-2; assay type: cell-based; conditions: 4, 8, 16 μM; 48 h and 72 h
Experimental: as §2

KE-37 cells = test: MTT cell viability assay, KE-37; assay type: cell-based; conditions: Homo sapiens, KE-37 leukaemia cells, read-out: IC50 cell proliferation KE-37
Experimental: as §4

P30-OHK cells = test: MTT cell viability assay, P30-OHK; assay type: cell-based; conditions: Homo sapiens, P30-OHK leukaemia cells, read-out: IC50 cell proliferation P30-OHK
Experimental: as §4

HAL-01 cells = test: MTT cell viability assay, HAL-01; assay type: cell-based; conditions: Homo sapiens, HAL-01 leukaemia cells, read-out: IC50 cell proliferation HAL-01
Experimental: as §4

LC4-1 cells = test: MTT cell viability assay, LC4-1; assay type: cell-based; conditions: Homo sapiens, LC4-1 leukaemia cells, read-out: IC50 cell proliferation LC4-1
Experimental: as §4

SUP-B15 cells = test: MTT cell viability assay, SUP-B15; assay type: cell-based; conditions: Homo sapiens, SUP-B15 leukaemia cells, read-out: IC50 cell proliferation SUP-B15
Experimental: as §4

| IC50 (MAO-A) [µM] | IC50 (MAO-B) [µM] | IC50 (LSD1) [µM] | melting point [°C] | SMILES | other results |
| --- | --- | --- | --- | --- | --- |
| > 20 | > 20 | 3.27 ± 0.13 | – | O=C(CSC(=S)N1CCN(Cc2ccccc2)CC1)Nc1ccc(C(=O)/C=C/c2ccccc2F)cc1 [D7, (E)-2-((4–(3-(2-Fluorophenyl)acryloyl)phenyl)amino)-2-oxoethyl-4-benzylpiperazine-1-carbodithioate] | – |
| > 20 | > 20 | 9.35 ± 0.14 | – | CN1CCN(C(=S)SCC(=O)Nc2ccc(C(=O)/C=C/c3ccccc3)cc2)CC1 [D2, (E)-2-((4-Cinnamoylphenyl)amino)-2-oxoethyl-4-methylpiperazine-1-carbodithioate] | – |
| > 20 | > 20 | 2.29 ± 0.35 | 136 to 138 | CCN1CCN(C(=S)SCC(=O)Nc2ccc(C(=O)/C=C/c3cccc(F)c3)cc2)CC1 [D5, (E)-2-((4–(3-(3-Fluorophenyl)acryloyl)phenyl)amino)-2-oxoethyl-4-ethylpiperazine-1-carbodithioate] | – |
| > 20 | > 20 | > 20 | 145 to 147 | O=C(CCl)Nc1ccc(C(=O)/C=C/c2ccccc2)cc1 [C1, (E)-2-Chloro-N-(4-cinnamoylphenyl)acetamide] | – |
| > 20 | > 20 | > 20 | – | O=C(CCl)Nc1ccc(C(=O)/C=C/c2ccc(F)cc2)cc1 [C4] | – |
| > 20 | > 20 | > 20 | – | Nc1ccc(C(=O)/C=C/c2ccccc2F)cc1 [Chalcone 4, reference compound] | – |
| > 20 | > 20 | 19.7 ± 0.67 | 156 to 158 | O=C(CCl)Nc1ccc(C(=O)/C=C/c2cccc(F)c2)cc1 [C2, (E)-2-Chloro-N-(4–(3-(3-fluorophenyl)acryloyl)phenyl)acetamide] | – |
| > 20 | > 20 | 11.3 ± 0.13 | 182 to 184 | CCN1CCN(C(=S)SCC(=O)Nc2ccc(C(=O)/C=C/c3ccc(F)cc3)cc2)CC1 [D1, (E)-2-((4–(3-(4-Fluorophenyl)acryloyl)phenyl)amino)-2-oxoethyl-4-ethylpiperazine-1-carbodithioate] | – |
| > 20 | > 20 | 15.4 ± 0.28 | 167 to 169 | O=C(CCl)Nc1ccc(C(=O)/C=C/c2ccccc2F)cc1 [C3, (E)-2-Chloro-N-(4–(3-(2-fluorophenyl)acryloyl)phenyl)acetamide] | – |
| > 20 | > 20 | – | – | Cc1ccc(Cn2cc(CSC(=S)N3CCN(C(=O)OC(C)(C)C)CC3)nn2)cc1 [Dithiocarbamate 26, reference compound] | – |
| > 20 | > 20 | 6.03 ± 0.17 | – | CN1CCN(C(=S)SCC(=O)Nc2ccc(C(=O)/C=C/c3cccc(F)c3)cc2)CC1 [D4, (E)-2-((4–(3-(3-Fluorophenyl)acryloyl)phenyl)amino)-2-oxoethyl-4-methylpiperazine-1-carbodithioate] | – |
| – | – | – | – | O=c1[nH]cc(F)c(=O)[nH]1 [5-Fluorouracil] | IC50 (KE-37 cells): 4.02 µM; IC50 (P30-OHK cells): 4.17 µM; IC50 (MOLT-4 cells; Homo sapiens, MOLT-4 leukaemia cells, MTT, read-out: IC50 cell proliferation MOLT-4): 2.89 µM; IC50 (HAL-01 cells): 5.1 µM; IC50 (LC4-1 cells): 10.2 µM; IC50 (SUP-B15 cells): 2.1 µM |
| > 20 | > 20 | 13.9 ± 0.18 | 181 to 183 | CCN1CCN(C(=S)SCC(=O)Nc2ccc(C(=O)/C=C/c3ccccc3)cc2)CC1 [D3, (E)-2-((4-Cinnamoylphenyl)amino)-2-oxoethyl-4-ethylpiperazine-1-carbodithioate] | fold activity loss against LSD1 (fluorine replaced with hydrogen) (LSD1; D3 vs. D5): over 6 fold |

| SMILES | IC50 (MAO-A) [µM] | IC50 (MAO-B) [µM] | IC50 (LSD1) [µM] | melting point [°C] | other results |
| --- | --- | --- | --- | --- | --- |
| CC(C)(C)OC(=O)N1CCN(C(=S)SCC(=O)Nc2ccc(C(=O)/C=C/c3ccccc3F)cc2)CC1 [D6, Tert-butyl-(E)-4-(((2-((4–(3-(2-fluorophenyl)acryloyl)phenyl)amino)-2-oxoethyl)thio)carbonothioyl)piperazine-1-carboxylate] | > 20 | > 20 | – | – | antiproliferative effects (cell viability) IMR-32 [1]: potential antiproliferative effects; body weight of mice (MOLT-4 xenograft): almost unchanged; global toxicity in xenograft model (MOLT-4 xenograft): low global toxicity; also recorded: without apparent toxicity; tumour growth (tumour volume, tumour weight) (MOLT-4 xenograft): significantly suppressed MOLT-4 xenograft tumour growth; also recorded: inhibited tumour growth remarkably; also recorded: inhibited in vivo tumour growth; antiproliferative effects (cell viability) 22RV1 [2]: potential antiproliferative effects; inhibition at 0.4 µM (MAO-A; 400 nM, read-out: inhibition rate MAO-A): 16.3%; antiproliferative effects (cell viability) MOLT-4 (MOLT-4 cells; 4, 8, 16 μM, 48 h and 72 h): potential antiproliferative effects; antiproliferation efficiency (MOLT-4 cells; MOLT-4 cells, 48 h, 4 μM): around 80%; inhibition at 0.4 µM (CDK2): 19%; amount of H3K9me1 and H3K9me2 [3]: induce the accumulation of H3K9me1/2; also recorded: concentration dependent accumulation; also recorded: up-regulated the expression levels of H3K9me1 and H3K9me2; expression level of LSD1 [3]: did not affect; inhibition at 0.4 µM (MAO-B; 400 nM, read-out: inhibition rate MAO-B): 17.7%; inhibition at 0.4 µM (CDK1): 16.3%; antiproliferative effects (cell viability) Caco-2 [4]: potential antiproliferative effects |
